Where “and” joins values, the source holds several entries; their conditions need not be identical. Equal entries are not always repeated.
Experiments:
[1] = biological target: T1, COX-2 (Homo sapiens, UniProt P35354); assay: COX-2 inhibitor screening assay kit (Cayman); type: biochemical; details: for IC50: three separate experiments
T1 construct: purchased Cayman Chemical (Ann Arbor, MI, USA)
T1 sequence (P35354 18-604): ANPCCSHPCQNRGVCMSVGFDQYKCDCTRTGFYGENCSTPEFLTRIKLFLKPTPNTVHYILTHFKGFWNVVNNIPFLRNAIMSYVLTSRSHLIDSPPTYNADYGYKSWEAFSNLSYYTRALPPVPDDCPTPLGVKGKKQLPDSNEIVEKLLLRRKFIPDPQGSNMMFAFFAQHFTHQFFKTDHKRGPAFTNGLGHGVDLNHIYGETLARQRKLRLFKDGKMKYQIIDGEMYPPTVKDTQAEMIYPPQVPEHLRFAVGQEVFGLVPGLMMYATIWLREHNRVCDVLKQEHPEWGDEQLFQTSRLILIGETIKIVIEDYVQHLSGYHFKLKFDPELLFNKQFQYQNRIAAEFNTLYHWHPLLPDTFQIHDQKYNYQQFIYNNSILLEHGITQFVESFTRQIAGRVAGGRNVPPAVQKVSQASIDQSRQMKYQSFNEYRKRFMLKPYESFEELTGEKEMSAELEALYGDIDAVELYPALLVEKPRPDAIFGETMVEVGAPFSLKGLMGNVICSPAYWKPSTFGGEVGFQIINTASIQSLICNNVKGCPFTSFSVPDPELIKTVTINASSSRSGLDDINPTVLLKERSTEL
Experimental: The test chemicals’ capacity to inhibit the conversion of arachidonic acid to prostaglandin was determined. In test tubes, 25 mM Tris–HCl, pH 8.0, containing 5 mM EDTA, phenol, and 1 mM hematin, was added. The test compounds were dissolved in dimethyl sulfoxide and added in concentrations ranging from 0.005–200 µM. Dimethyl sulfoxide alone was applied to control test containers. COX-1 or COX-2 enzymes were added to test tubes and preincubated for 10 min at 37 °C. The arachidonic acid substrate was added, and the tubes were incubated at 37 °C for 2 min. The compound immunochemical assay was used to calculate the amount of prostaglandin produced. Three separate experiments were used to calculate the IC50 values. The selectivity index was calculated as follows:(1) Selectivity index=IC50COX−1/IC50COX−2

[2] = tested on: carrageenan-induced rat paw edema; assay: Carrageenan-induced paw edema in rats; type: in vivo; details: 10 mg/kg orally; for rat paw edema: after 1 h of dosing; for rat paw edema size: evaluated for 5 h, Figure 3
Excerpt: The carrageenan-induced paw edema model was used to evaluate the compounds’ anti-inflammatory activity. Only carrageenan was given to the control animals. The treatment effect was tracked by observing the improvement of rat paw edema in response to drug administration. Carrageenan injections caused rat paws to grow from 0.3 cm to 0.8 cm in size.
Following in vitro testing, three compounds with the highest selectivity against COX-2 were chosen for in vivo investigations utilizing the rat paw edema assay. After subcutaneous carrageenan injection into the rodent’s paw, plasma extravasation, tissue proliferation, plasma protein release, and neutrophilic extravasation, all of which are caused by arachidonic acid digestion, produced inflammation. Following the carrageenan infusion, the main phase lasted 2 h. The following process is remodeling, which takes 5 h and begins at the 3rd h. The main stage is distinguished by the appearance of histamine and serotonin. The development of prostaglandins, proteases, and lysosomes causes the second stage of edema. Adult male albino rats weighing 120–150 g were divided into seven groups, each with seven rats, and kept at 25 °C with a 12-h light/dark cycle. Subplantar injection of 0.2 mL of 1% carrageenan solution in 0.9 percent saline into the right hind paw of rats was used to induce swelling and inflammation. To determine the inflammation generated by carrageenan, the Vernier Caliper was used to measure the thickness of rat paws before and after injection. […] Paw edema was measured at 0, 0.5, 1, 2, 3, 4, and 5 h after the drug was administered. The edema inhibition was calculated by calculating the difference in thicknesses between the treated and control groups.

[3] = tested on: rat paw; assay: Histopathological examination of rat paw (H&E, Masson's trichrome); type: in vivo; details: carrageenan-treated rats
Experimental: The rats’ paws were collected and washed in a saline solution after the end of rat paw experiment. Specimens were fixed in 10% natural formalin for 2 days before being washed overnight with running water. The cleaned samples were dehydrated in ethyl alcohol at increasing percentages, starting with 70% and ending with absolute alcohol. The samples were cleaned by immersing them in xylol for 2 h. For 3 h at 37 °C, the cleared samples were placed in a sealed jar containing 50% paraffin in xylol. The samples were then soaked in melting paraffin for 2 h at 48 °C before being blocked in hard paraffin and sliced into 5-micron slices. The sections were stained with hematoxylin and eosin (H&E) and Masson’s trichrome. Sections were mounted with Canada balsam and covered with a coverslip in preparation for histological examination.

[4] = tested on: rat stomach; assay: Histopathological examination of rat stomach / ulcerogenic effect; type: in vivo; details: single dose 20 mg/kg orally
Experimental: Compounds 1–3 were examined for ulcerogenic effects in the rat stomach after showing anti-inflammatory advantages in a rat paw test. Rats were deprived for 24 h at 25 °C with a 12 h light/dark cycle. Indomethacin was used as a control. All compounds were given in a single dose of 20 mg/kg orally. After 24 h, the rats were slaughtered, and their stomachs were removed and washed with normal saline. Binocular magnification was used to inspect each group’s stomachs for the existence of a gastric lesion on the mucosa. Following that, the stomachs were kept in 10% w/v formalin for histological investigation, as previously described.

[5] = tested on: Raw264.7 cells; assay: In vitro cytotoxicity, WST-1 assay; type: cell-based, mouse; details: 1 µM, 24 h, presence or absence of LPS (1 ug/mL)
Experimental: Raw264.7 cells were used to test the effects of compounds 1, 2, and 3 on cell viability and proliferation. Raw264.7 cells were treated for 24 h in a 96-well plate with compounds (1 µM) in the presence or absence of LPS (1 ug/mL). WST1 reagent was added to each well after treatment and incubated for an additional 2 h. Following that, the OD450/620 ratio was determined. […] However, all compounds had no effect on WST1 values or cell morphology in Raw264.7 cells. Raw264.7 cells in a 96-well plate were treated with our compounds (1 uM) in the presence or absence of LPS (1 ug/mL) for 24 h. After treatment, the WST1 reagent was added into each well and incubated for an additional 2 h. After that, OD450/620 was measured.
Dulbecco’s modified Eagle’s minimum essential medium containing 5% heat-inactivated fetal bovine serum was used to maintain Raw264.7 cells (ATCC). Raw264.7 cells ([…]) in a 96-well plate were treated for 24 h with the indicated compounds at 1 µM or vehicle (DMSO) in the presence or absence of LPS (1 µg/mL) to detect cell viability based on mitochondrial activity. WST-1 solution (Dojindo) was then added to each well and incubated at 37 °C for an additional 2 h. According to a previous study, cell viability was determined using the difference in absorbance at 450 and 620 nm as an indicator [37].

Row | Compound | SI (selectivity index = IC50 COX-1/IC50 COX-2) [1] | IC50 [1] | rat paw edema [2] | rat paw collagen deposition, Masson's Trichrome stain ([3]; 10× magnification) | rat paw histopathology, H&E ([3]; 10× magnification) | rat paw histopathology, H&E ([3]; 40× magnification) | rat stomach collagen deposition, Masson's Trichrome [4] | rat stomach collagen deposition, Masson's Trichrome ([4]; 10× magnification) | rat stomach histopathology, H&E ([4]; 10× magnification) | rat stomach collagen deposition, Masson's Trichrome ([4]; 40× magnification) | rat stomach histopathology, H&E ([4]; 40× magnification) | rat paw edema size [2] | effect on WST1 values (cell viability) and cell morphology [5] | rat paw histopathology, H&E: edema and inflammatory cell infiltration [3] | rat paw collagen deposition, Masson's stain [3]
1 | O=C(O)COc1ccc(Cl)cc1C1CC(=O)Nc2cc3[nH]ncc3cc21 (stereo not drawn) [Compound 7] | 95.068 | 97 ± 15 nM |  |  |  |  |  |  |  |  |  |  |  |  | 
2 | O=C(O)CC1COCCN1Cc1cccc(-c2ccccn2)c1 (stereo not drawn) [Compound 6] | 190.88 | 60 ± 75 nM |  |  |  |  |  |  |  |  |  |  |  |  | 
3 | COc1ccc2c(c1)c(CC(=O)O)c(C)n2C(=O)c1ccc(Cl)cc1 [Indomethacin, reference compound] |  |  | dramatically reduced rat paw edema | slight collagen deposition | significant decrease in the degree of inflammatory reaction (black star) and a moderate decrease in edema | slight inflammatory reaction (black star) and edema | mild increase in collagen deposition | significant collagen deposition | slight degeneration of gastric layers | collagen deposition | absence of any signs of an inflammatory reaction |  |  |  | 
4 | COc1ccc(CN(Cc2ccc(F)cc2)CC2CCCO2)cc1CO (stereo not drawn) [Compound 4] | 36.3 | 210 ± 10 nM |  |  |  |  |  |  |  |  |  |  |  |  | 
5 | Cc1cccc2[nH]c(C3CCCN(C(=O)c4ccccc4NCC(=O)O)C3)nc12 (stereo not drawn) [Compound 1, [(2-{[3-(4-methyl-1H-benzimidazol-2-yl)piperidin-1-yl]carbonyl}phenyl)amino]acetic acid] |  |  |  | slight collagen deposition | significant decrease in the dermal thickness, inflammatory reaction in the deep dermis (black star), and moderate improvements in edema | slight inflammatory reaction (black star) and edema |  | normal collagen deposition | normal gastric layers | normal collagen deposition | absence of any signs of an inflammatory reaction | significantly reduced rat paw size | non-cytotoxic | marked improvement in the degree of edema and the inflammatory cell infiltration | 
6 | O=C(O)Cc1ccccc1Nc1c(Cl)cccc1Cl [Diclofenac, reference compound] |  |  | dramatically reduced rat paw edema |  |  |  |  |  |  |  |  |  |  |  | 
7 | COc1cccc(-c2nn(-c3ccccc3)cc2CN(C)CCc2cn[nH]c2)c1 [Compound 5] | 132.64 | 80 ± 9 nM |  |  |  |  |  |  |  |  |  |  |  |  | 
8 | CCOC(=O)c1cn(-c2cc(C#N)ccc2O)cc(Oc2ccccc2)c1=O [Compound 2, ethyl 1-(5-cyano-2-hydroxyphenyl)-4-oxo-5-phenoxy-1,4-dihydropyridine-3-carboxylate] |  |  |  | slight collagen deposition | substantial decrease in both the inflammatory reaction (black star) and edema | slight inflammatory reaction (black star) and edema |  | slight collagen deposition | normal gastric layers | slight collagen deposition | absence of any signs of an inflammatory reaction | significantly reduced rat paw size | non-cytotoxic | marked anti-inflammatory effect and a pronounced decline in edema and inflammatory cell invasion | lowest
9 | O=C(O)[C@H]1C[C@@H](C(=O)NC2CC2)CN(C(=O)c2ccc3[nH]nnc3c2)C1 [Compound 3] | 194.9 and 194.91 | 60 ± 3 nM |  | significant collagen deposition | significant decrease in the degree of inflammatory reaction (black star) and a moderate decrease in edema | moderate inflammatory reaction (black star) and edema | mild increase in collagen deposition | significant collagen deposition | slight degeneration of gastric layers | significant collagen deposition | absence of any signs of an inflammatory reaction | significantly reduced rat paw size |  | weaker action than compounds 1 and 2 manifested by a moderate increase in cell infiltration and edema | 

From article PMC8955829, “Drug Discovery of New Anti-Inflammatory Compounds by Targeting Cyclooxygenases” (Pharmaceuticals, 2022)
